Experimental data published in PMC12670426 (Journal of Medicinal Chemistry, 2025).
Read-outs that look alike come from different tables or passages of the source.

Columns and labels:
[1] = target: T1, human galectin-1 (Gal-1, full length) (Homo sapiens, UniProt P09382); assay: Competitive fluorescence polarization assay, Gal-1; type: binding
T1 construct: Gal-1 is a prototype galectin consisting of a single CRD and was used in full length; 6xHis tag with TEV protease site (N, cleaved yes); made in house; host or cells: BL21 Escherichia coli (pET-15b)
T1 sequence (P09382 2-135): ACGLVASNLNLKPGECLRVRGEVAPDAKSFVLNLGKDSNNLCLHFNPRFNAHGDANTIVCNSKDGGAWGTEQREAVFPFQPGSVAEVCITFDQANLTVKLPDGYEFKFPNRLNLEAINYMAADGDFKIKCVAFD
Description: (§1) Our investigation of the structure–activity relationship of N-aryl-N-lactosylamides started with an initial screening of substituted acetanilides (Table ). These compounds can be readily synthesized from a wide range of commercially available substituted anilines. Affinity was evaluated using a fluorescence polarization assay, which enables reliable determination of dissociation constants (K d) between small molecules and galectins. All inhibitors in this series were tested against the two most common human galectins: Gal-1 and Gal-3. Gal-1 is a prototype galectin consisting of a single CRD and was used in full length. In the case of Gal-3, which consists of the C-terminal CRD and N-terminal unfolded region, only the C-terminal domain was used (Gal-3C). Affinities were compared to methyl β-lactoside (β-LacOMe) as a baseline.
(§2) Fluorescence polarization experiments for determining inhibitor affinities were performed using the same instrumentation and settings as described for the direct binding experiments. […] The galectin–probe mixture was subsequently added using a Certus Flex liquid handler (Fritz Gyger AG, Switzerland) to reach a final volume of 5 μL. Anisotropy was measured after 30–60 min incubation at 25 °C. Inhibitor dissociation constants (K d) were calculated using Wang’s exact cubic model for competitive binding implemented in the BindCurve package. Protein and probe concentrations used in these competitive experiments are provided in the Supporting Information.
(§3) Competitive binding was modeled by Wang’s exact cubic model,3 which is written as […]
(§4) r = rmin + (rmax − rmin) 3 (6) […]
(§5) where r, rmin and rmax have the same meaning as in Equation 1. The coefficients a, b, and c are […]
(§6) a = Kd∗ + Kd + [L∗]T + [L]T − [R]T (7) b = Kd∗([L]T − [R]T) + Kd([L∗]T − [R]T) + Kd∗ Kd (8) […]
(§7) where Kd∗ is the dissociation constant of the probe, Kd is the dissociation constant of the […]
(§8) the unlabeled ligand, and [R]T is the total concentration of the receptor. The angle θ is defined […]
(§9) In the competitive binding experiments, the values of [L∗]T, [R]T and Kd∗ are known and [L]T is titrated. The values of minimal and maximal anisotropy rmin and rmax were fixed during fitting at the values of the minimal and maximal asymptotes obtained from the direct binding experiments. The value of Kd was calculated as the only unfixed parameter in the model.
(§10) Experimental constants used for the competitive fluorescence polarization experiments are […]
(§11) Table S2. Experimental constants used for competitive fluorescence polarization experiments. […]

[2] = target: T2, human galectin-3C (Gal-3C, C-terminal CRD of galectin-3) (Homo sapiens, UniProt P17931); assay: Competitive fluorescence polarization assay, Gal-3C; type: binding
T2 construct: only the C-terminal domain was used (Gal-3C); 6xHis tag with TEV protease site (N, cleaved yes); made in house; host or cells: BL21 Escherichia coli (pET-15b)
T2 sequence (P17931 118-248 limits assumed): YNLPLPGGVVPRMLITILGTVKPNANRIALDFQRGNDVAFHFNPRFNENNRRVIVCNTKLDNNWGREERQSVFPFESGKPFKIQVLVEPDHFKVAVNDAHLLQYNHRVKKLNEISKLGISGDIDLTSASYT
Description: as §1, §2, §3, §4, §5, §6, §7, §8, §9, §10, §11

[3] = CSV supplement, unrounded mean, read-out: Gal1_IC50_mean_uM
[4] = CSV supplement, unrounded mean, read-out: Gal1_Kd_mean_uM
[5] = competitive fluorescence polarization, mean ± SD, read-out: Kd Gal-1
[6] = four-parameter logistic model, mean ± SD, read-out: IC50 Gal-1
[7] = CSV supplement, unrounded mean, read-out: Gal3C_IC50_mean_uM
[8] = CSV supplement, unrounded mean, read-out: Gal3C_Kd_mean_uM
[9] = competitive fluorescence polarization, mean ± SD, read-out: Kd Gal-3C
[10] = four-parameter logistic model, mean ± SD, read-out: IC50 Gal-3C

In the case of CC(=O)N(c1ccc(I)cc1)[C@@H]1O[C@H](CO)[C@@H](O[C@@H]2O[C@H](CO)[C@H](O)[C@H](O)[C@H]2O)[C@H](O)[C@H]1O [Compound 3l, N-[4-O-(β-D-Galactopyranosyl)-β-D-glucopyranosyl]-N-(4-iodophenyl)acetamide], the IC50 [1, 3] is reported as 718 µM, the Kd [1, 4] is reported as 396 µM and the Kd [1, 5] is reported as 400 ± 20 µM. It also gave an IC50 [1, 6] of 720 ± 40 µM, an IC50 [2, 7] of 355 µM and a Kd [2, 8] of 113 µM. It also gave a Kd [2, 9] of 110 ± 20 µM and an IC50 [2, 10] of 360 ± 20 µM.

With COc1ccc(N(C(C)=O)[C@@H]2O[C@H](CO)[C@@H](O[C@@H]3O[C@H](CO)[C@H](O)[C@H](O)[C@H]3O)[C@H](O)[C@H]2O)cc1 [Compound 3m, N-[4-O-(β-D-Galactopyranosyl)-β-D-glucopyranosyl]-N-(4-methoxyphenyl)acetamide] the IC50 [1, 3] was 973 µM, the Kd [1, 4] was 661 µM and the Kd [1, 5] was 660 ± 70 µM. For the same compound, the IC50 [1, 6] was 970 ± 50 µM, the IC50 [2, 7] was 346 µM and the Kd [2, 8] was 137 µM. For the same compound, the Kd [2, 9] was 140 ± 50 µM and the IC50 [2, 10] was 350 ± 30 µM.

With COc1ccc(N(C(C)=O)[C@@H]2O[C@H](CO)[C@@H](O[C@@H]3O[C@H](CO)[C@H](O)[C@H](O)[C@H]3O)[C@H](O)[C@H]2O)cc1OC [Compound 3n, N-[4-O-(β-D-Galactopyranosyl)-β-D-glucopyranosyl]-N-(3,4-dimethoxyphenyl)acetamide] the IC50 [1, 3] was 678 µM, the Kd [1, 4] was 364 µM and the Kd [1, 5] was 360 ± 40 µM. It also gave an IC50 [1, 6] of 680 ± 10 µM, an IC50 [2, 7] of 284 µM and a Kd [2, 8] of 88.9 µM. For the same compound, the Kd [2, 9] was 89 ± 20 µM and the IC50 [2, 10] was 280 ± 10 µM.

For COc1cc(N(C(C)=O)[C@@H]2O[C@H](CO)[C@@H](O[C@@H]3O[C@H](CO)[C@H](O)[C@H](O)[C@H]3O)[C@H](O)[C@H]2O)cc(OC)c1OC [Compound 3o, N-[4-O-(β-D-Galactopyranosyl)-β-D-glucopyranosyl]-N-(3,4,5-trimethoxyphenyl)acetamide], the IC50 [1, 3] was 461 µM, the Kd [1, 4] was 243 µM and the “improvement in affinity toward Gal-1 compared to 3a” value ([1]; compared to 3a) was 2 fold. It also gave a Kd [1, 5] of 240 ± 40 µM, an IC50 [1, 6] of 460 ± 80 µM and an IC50 [2, 7] of 238 µM. For the same compound, the Kd [2, 8] was 76.2 µM, the Kd [2, 9] was 76 ± 20 µM and the IC50 [2, 10] was 240 ± 40 µM.

CC(=O)N(c1ccc2c(c1)OCO2)[C@@H]1O[C@H](CO)[C@@H](O[C@@H]2O[C@H](CO)[C@H](O)[C@H](O)[C@H]2O)[C@H](O)[C@H]1O [Compound 3p, N-[4-O-(β-D-Galactopyranosyl)-β-D-glucopyranosyl]-N-(1,3-benzodioxol-5-yl)acetamide] was tested, and the IC50 [1, 3] was 981 µM, the Kd [1, 4] was 545 µM and the Kd [1, 5] was 540 ± 30 µM. The IC50 [1, 6] was 980 ± 10 µM, the IC50 [2, 7] was 346 µM and the Kd [2, 8] was 115 µM. For the same compound, the Kd [2, 9] was 110 ± 20 µM and the IC50 [2, 10] was 350 ± 10 µM.

For CCOC(=O)c1ccccc1N(C(C)=O)[C@@H]1O[C@H](CO)[C@@H](O[C@@H]2O[C@H](CO)[C@H](O)[C@H](O)[C@H]2O)[C@H](O)[C@H]1O [Compound 3q, N-[4-O-(β-D-Galactopyranosyl)-β-D-glucopyranosyl]-N-[2-(ethylcarboxy)phenyl]acetamide], the IC50 [1, 3] was 773 µM, the Kd [1, 4] was 411 µM and the Kd [1, 5] was 410 ± 20 µM. For the same compound, the IC50 [1, 6] was 770 ± 70 µM, the IC50 [2, 7] was 242 µM and the Kd [2, 8] was 80.2 µM. For the same compound, the Kd [2, 9] was 80 ± 9 µM and the IC50 [2, 10] was 240 ± 5 µM.

Work on CC(=O)N(c1cccc(C(=O)O)c1)[C@@H]1O[C@H](CO)[C@@H](O[C@@H]2O[C@H](CO)[C@H](O)[C@H](O)[C@H]2O)[C@H](O)[C@H]1O [Compound 3r, N-[4-O-(β-D-Galactopyranosyl)-β-D-glucopyranosyl]-N-(3-carboxyphenyl)acetamide] yielded an IC50 [1, 3] of 1400 µM, a Kd [1, 4] of 858 µM and a Kd [1, 5] of 860 ± 30 µM. The IC50 [1, 6] was 1400 ± 100 µM, the IC50 [2, 7] was 127 µM and the Kd [2, 8] was 40.9 µM. The “improvement in affinity toward Gal-3C compared to 3a” value ([2]; compared to unsubstituted phenyl derivative 3a) was 2 fold, the Kd [2, 9] was 41 ± 10 µM and the IC50 [2, 10] was 130 ± 20 µM. The “selectivity for Gal-3C over Gal-1” value ([2]; ratio Kd (Gal-1)/Kd (Gal-3C)) was 20 fold.
